Data published in PubChem BioAssay (NCI).
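Cells were grown in 96-well plates and exposed to each compound for 48 hours at five concentrations; endpoints were interpolated linearly between bracketing concentrations, or set to the highest concentration if not reached. Here, GI50 denotes the concentration required for 50% inhibition of growth. TGI is the concentration that stops growth completely.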

How the values were obtained:
Assay in all cases: growth of human tumour cells (NCI), 48 h
[1] = system: A549 NSCLC
[2] = system: M14 melanoma
[3] = system: NCI-H23 lung
[4] = system: OVCAR-3 ovarian
[5] = system: OVCAR-5 ovarian
[6] = system: OVCAR-8 ovarian
[7] = system: SK-MEL-28 melanoma
[8] = system: SK-MEL-5 melanoma
[9] = system: MDA-MB-231 breast
[10] = system: SR leukemia

Structure (SMILES) | TGI [1] | TGI [2] | TGI [3] | TGI [4] | TGI [5] | TGI [6] | TGI [7] | TGI [8] | GI50 [1] | GI50 [2] | GI50 [9] | TGI [9] | GI50 [3] | GI50 [4] | GI50 [5] | GI50 [6] | GI50 [7] | GI50 [8] | TGI [10]
CC1=CC(O)(c2ccc(-c3ccccc3Cl)cc2)OC1=O (stereo not given) | > 100 µM | > 100 µM | > 100 µM | > 100 µM | > 100 µM | > 100 µM | > 100 µM | > 100 µM |  |  |  |  |  |  |  |  |  |  | 
OCC#Cc1ccccc1C#Cc1ccccc1 | 45 µM | 22.5 µM | 27.6 µM | 20.3 µM | 28.3 µM | 40.6 µM | 40.4 µM | 31.8 µM | 16.5 µM | 10.6 µM | 3.26 µM | 16.4 µM | 13.7 µM | 6.9 µM | 14.4 µM | 19.6 µM | 19.2 µM | 15.9 µM | 
CCOC(=O)C(=C=C=C(c1ccccc1)c1ccccc1)C(=O)OCC | 74.5 µM | 41.5 µM | > 100 µM | 31 µM | 35.5 µM | 50.3 µM | 36.8 µM |  |  |  |  |  |  |  |  |  |  |  | 
COc1cc2c3c(n(C)c(=O)c2cc1OC)-c1cc2c(cc1/C3=C\CCN)OCO2 | 4.44 µM | 4.82 µM |  | 5.09 µM | 3.7 µM | 5.65 µM | 33.5 µM |  | 0.165 µM | 0.22 µM | 1.36 µM | 4.78 µM |  | 0.564 µM | 0.255 µM | 0.169 µM | 8.76 µM |  | 
CC(=O)OC1COC(n2ccc3cc(Br)c([N+](=O)[O-])cc32)C(OC(C)=O)C1OC(C)=O (stereo not given) | 92.3 µM | > 100 µM | 61.3 µM | 65.6 µM |  | 82.1 µM | > 100 µM |  |  |  |  |  |  |  |  |  |  |  | > 100 µM
Cn1c2ccccc2c2cc(-c3ccccc3)c3c(c21)C(=O)c1ccccc1C3=O | 79.1 µM | 33.4 µM | 22.8 µM | 36.4 µM |  | 68.1 µM | 37.5 µM |  |  |  |  |  |  |  |  |  |  |  | 31.4 µM
O=C(CSc1ccc(Cl)cc1)Nc1ccc(-c2nc3ccccc3s2)c(Cl)c1 | > 100 µM | 33.8 µM | 5.56 µM | 8.01 µM | 55.4 µM | > 100 µM | 46.4 µM | 23 µM | 5.84 µM | 4.87 µM | 8.34 µM | 23.6 µM | 2.23 µM | 2.43 µM | 11.6 µM | 5.09 µM | 6.31 µM | 10.4 µM | 
Cc1ccc(S(=O)(=O)Nc2ccccc2C(=O)c2ccc(C)c(C)c2)cc1 | > 100 µM | > 100 µM | > 100 µM | > 100 µM | > 100 µM | > 100 µM | > 100 µM | > 100 µM |  |  |  | > 100 µM |  |  |  |  |  |  | 
CC1(C)C2CCC(=O)C1CC2 (stereo not given) | > 100 µM | > 100 µM | > 100 µM | > 100 µM | > 100 µM | > 100 µM | > 100 µM | > 100 µM |  |  |  | > 100 µM |  |  |  |  |  |  | 
CC(C)=Cc1cc(C(=O)Nc2ccc(Cl)c(Cl)c2)nc(N)n1 | > 100 µM | > 100 µM | > 100 µM | > 100 µM | > 100 µM | > 100 µM | > 100 µM | > 100 µM |  |  |  |  |  |  |  |  |  |  | 
CCOC(=O)NC(=O)c1cn(CCCO)c(=O)[nH]c1=O | > 100 µM | > 100 µM | > 100 µM | > 100 µM | > 100 µM | > 100 µM | > 100 µM | > 100 µM |  |  |  |  |  |  |  |  |  |  | 
CCOC(=O)c1cc2nc3ccccc3c(=O)n2c2ccccc12 | > 10 µM | > 10 µM | > 10 µM | > 10 µM | > 10 µM | > 10 µM | > 10 µM | > 10 µM |  |  |  | > 10 µM |  |  |  |  |  |  | 
Cc1ccc(NC(=O)c2cc3cc(N=Nc4ccccc4C(=O)O)ccc3oc2=O)cc1 | > 100 µM | > 100 µM | > 100 µM | 74.2 µM |  | > 100 µM | > 100 µM | > 100 µM |  |  |  |  |  |  |  |  |  |  | 
O=C(/C=C/c1ccncc1)c1cc(Cl)ccc1O | 53.2 µM | 34.1 µM | 38.8 µM | 32.9 µM | 50.7 µM | 57 µM | 47.5 µM | 34.4 µM | 23 µM | 17.5 µM | 18.6 µM | 42.3 µM | 17.2 µM | 17.3 µM | 24 µM | 23.6 µM | 22.6 µM | 19.2 µM | 
COC(OC)C(C)CC(=O)N(C)C (stereo not given) | > 100 µM | > 100 µM |  | > 100 µM | > 100 µM | > 100 µM | > 100 µM | > 100 µM |  |  |  |  |  |  |  |  |  |  | 
C[Si](C)(C)C1(Sc2ccccc2)SCCCS1 | > 100 µM | > 100 µM | > 100 µM | > 100 µM | > 100 µM | > 100 µM | > 100 µM | > 100 µM |  |  |  |  |  |  |  |  |  |  | 
C[C@@H]1CCC2[C@@H](C)[C@@H](OCC(CO[C@H]3OC4O[C@@]5(C)CC[C@H]6[C@H](C)CCC([C@H]3C)[C@@]46OO5)OC(=O)CCC(=O)O)OC3O[C@@]4(C)CC[C@@H]1[C@]32OO4 (stereo not given in full) | 32.6 µM | 26.9 µM | 11.3 µM | 15.8 µM | 14.7 µM | 27.2 µM | > 47.4 µM | 17.5 µM | 0.971 µM | 4.05 µM | 0.0602 µM | 7.95 µM | 0.0101 µM | 0.02 µM | < 0.01 µM | 0.511 µM | 11.4 µM | 0.147 µM | 
